Literature values in PMC4667793 (Journal of medicinal chemistry, 2015).
Counter-ions that a name gives are not always drawn.

Target: MtBPL (Mycobacterium tuberculosis, UniProt I6YFP0)
Settings: binding MtBPL; cited from earlier work

Sequence of MtBPL (I6YFP0 whole entry, looked up): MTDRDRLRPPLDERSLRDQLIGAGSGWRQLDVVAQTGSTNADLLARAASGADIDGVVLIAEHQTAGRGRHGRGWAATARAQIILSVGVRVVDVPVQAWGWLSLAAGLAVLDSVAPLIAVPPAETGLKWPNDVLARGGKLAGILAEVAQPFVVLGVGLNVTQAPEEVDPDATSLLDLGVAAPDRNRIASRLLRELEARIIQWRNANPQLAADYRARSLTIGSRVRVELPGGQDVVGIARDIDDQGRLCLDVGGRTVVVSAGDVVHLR

For `Nc1ncnc2c1ncn2[C@@H]1O[C@H](CNS(=O)(=O)NC(=O)CCCC[C@@H]2SC[C@@H]3NC(=O)N[C@@H]32)[C@@H](O)[C@H]1O` [Compound 14, 5′-[N-(D-biotinoyl)sulfamoyl]amino-5′-deoxyadenosine triethylammonium salt], the “times more tightly bound than biotin” value is given as “more than 1,700 times”.
